Assay results: patent US20180360972A1, “THERAPEUTIC COMPOUNDS” (REGENTS OF THE UNIVERSITY OF MINNESOTA, priority 2017, published 2018)
Square brackets hold non-standard residues; d marks the D form. Peptide text beside a SMILES is read from it. d2Nal = N[C@H](Cc1ccc2ccccc2c1)C(=O)O

Assays:
hMC4R [1] = target: T1, hMC4R (Homo sapiens, UniProt P32245); assay: cAMP Signaling | EC50 (nM)
T1 construct: Flag; expressed in transfected cells
Procedure: Table printed on a drawing sheet, Figure 20
The cAMP signaling potency was determined by AlphaScreen™ assays. […] The reported errors are the standard error of the mean (SEM) determined from at least three independent experiments. Changes less than 3-fold were considered to be within the inherent experimental assay error.
Target sequence in this assay (P32245 whole entry, looked up): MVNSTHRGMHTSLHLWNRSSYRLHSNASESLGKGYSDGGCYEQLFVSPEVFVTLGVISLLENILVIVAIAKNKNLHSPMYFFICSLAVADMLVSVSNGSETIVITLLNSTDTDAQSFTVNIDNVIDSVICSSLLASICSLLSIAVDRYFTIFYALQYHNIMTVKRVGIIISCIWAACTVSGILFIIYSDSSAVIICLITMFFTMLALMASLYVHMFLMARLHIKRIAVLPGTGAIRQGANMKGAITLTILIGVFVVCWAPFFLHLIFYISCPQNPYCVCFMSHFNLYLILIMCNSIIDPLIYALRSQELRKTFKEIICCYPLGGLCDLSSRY

hMC4R [2] = target: T1, hMC4R; assay: PRESTO-Tango β-arrestin recruitment assay; format: cell-based; conditions: for β-arrestin response compared to maximal efficacy of NDP-MSH: at 10 μM; for fold increase in β-arrestin recruitment compared to CJL-1-14: vs tetrapeptide CJL-1-14
Procedure: The PRESTO-Tango technology is an open-source resource that has been utilized to identify ligands for orphan receptors based on β-arrestin recruitment.
The plasmids and assay technology was kindly provided by the Bryan Roth laboratory (University of North Carolina at Chapel Hill) and are now available through ADDGENE (Kit # 1000000068).
The first day of the assay, HTLA cells were plated at approximately 1×10^6 cells per 10 cm plate and grown to 20-40% confluency. […] The third day, cells were removed from 10 cm plates using Gibco® Versene solution and pelleted by centrifugation (Sorvall Super T21 high speed centrifuge, swinging bucket rotor) at 800 rpm for five minutes at room temperature. Cells were manually counted on a hemocytometer and resuspended in 1% dialyzed FBS and 1% penicillin/streptomycin in DMEM to a final concentration of 400,000 cells/mL. […] Stimulated cells were incubated for 18 hours in 5% CO2 at 37° C. On the fifth day, the assay buffer and cell medium was removed by aspiration. […] After incubation, luminescence was then read on an EnSpire™ Alpha plate reader using a pre-normalized assay protocol for luminescence set by the manufacturer. Dose response curves were analyzed using the PRISM program (v4.0; GraphPad Inc.).
Target sequence in this assay (P32245 whole entry): as the sequence (P32245 whole entry, looked up) above

hMC4R [3] = target: T1, hMC4R; assay: AlphaScreen cAMP functional bioassay, hMC4R; format: cell-based
Procedure: Upon agonist stimulation, melanocortin receptors are known to signal through a Gαs-protein mediated signaling pathway that results in intracellular cAMP accumulation.
Stable populations were selected for using G418 selection (0.7-1.0 mg/mL) and used in bioassays unless indicated otherwise. In vitro experimental ligands were dissolved to a 10^−2 M stock in DMSO and stored at −20° C. Subsequent dilutions were performed in each assay's specific buffer to achieve the final concentration in the well. The ligands were assayed as TFA salts.
AlphaScreen cAMP Functional Bioassay
The AlphaScreen® assay was performed as described by manufacturer.
Cells were removed from plates using Gibco® Versene solution and pelleted by centrifugation (Sorvall Super T21 high speed centrifuge, swinging bucket rotor) at 800 rpm for five minutes. […] A 10 μL aliquot of cell suspension was counted manually using a hemocytometer after addition of Trypan blue dye (BioRad). Cells were again pelleted by centrifugation, and DPBS was gently aspirated. The pelleted cells were then resuspended in a solution of freshly made stimulation buffer (Hank's Balanced Salt Solution [HBSS 10× [−] sodium bicarbonate] and [−] phenol red, Gibco®], 0.5 mM isobutylmethylxanthine [IBMX], 5 mM HEPES buffer solution [1M, Gibco®], 0.1% bovine serum albumin [BSA] in Milli-Q water, pH=7.4) and anti-cAMP acceptor beads (1.0 unit per well, AlphaScreen®). […] The cells were then stimulated with ligand diluted in stimulation buffer to achieve their final concentrations in the well ranging from 10^−13 to 10^−4 M. The stimulated plates were incubated in a dark laboratory drawer at room temperature for two hours.
Meanwhile, a biotinylated cAMP/streptavidin donor bead working solution was made by adding biotinylated cAMP (1 Unit/well, AlphaScreen®) and streptavidin donor beads (1 Unit/well, AlphaScreen®) to a lysis buffer (10% Tween-20, 5 mM HEPES buffer solution [1M, Gibco®], 0.1% bovine serum albumin [BSA] in Milli-Q water, pH=7.4). After the two hour stimulation, the biotinylated cAMP/Streptavidin donor bead working solution was added to each well under green light and mixed well by pipetting up and down. The cells were incubated for another two hours at room temperature in a dark drawer at room temperature. The plate was then read on an EnSpire™ Alpha plate reader using a pre-normalized assay protocol set by the manufacturer. Assays were performed with duplicate data points on each plate and repeated in at least three independent experiments.
Dose response curves were analyzed using the PRISM program (v4.0; GraphPad Inc.).
Target sequence in this assay (P32245 whole entry): as the sequence (P32245 whole entry, looked up) above

hMC4R [4] = target: T1, hMC4R; assay: β-Arrestin Recruitment | EC50 (nM)
Target sequence in this assay (P32245 whole entry, looked up): as above

[5] = target: mMC4R-NanoLuc and mMC4R-HaloTag homodimer (Mus musculus, UniProt P56450); assay: NanoBRET ligand-dependent modulation of BRET signal; conditions: 10^−5, 10^−7 and 10^−9 M vs assay buffer
mMC5R = mMC5R (Mus musculus, UniProt P41149); assay: mMC5R | Agonist EC50 (nM)
Procedure: Table printed on a drawing sheet, Figure 23
The cAMP signaling potency was determined by AlphaScreen® assays. The reported errors are the standard error of the mean (SEM) determined from at least three independent experiments. Changes less than 3-fold were considered to be within the inherent experimental assay error. NS means compound was not soluble in bioassay compatible solvent.

mMC4R-NanoLuc and mMC4R-HaloTag homodimer, sequence (P56450 whole entry): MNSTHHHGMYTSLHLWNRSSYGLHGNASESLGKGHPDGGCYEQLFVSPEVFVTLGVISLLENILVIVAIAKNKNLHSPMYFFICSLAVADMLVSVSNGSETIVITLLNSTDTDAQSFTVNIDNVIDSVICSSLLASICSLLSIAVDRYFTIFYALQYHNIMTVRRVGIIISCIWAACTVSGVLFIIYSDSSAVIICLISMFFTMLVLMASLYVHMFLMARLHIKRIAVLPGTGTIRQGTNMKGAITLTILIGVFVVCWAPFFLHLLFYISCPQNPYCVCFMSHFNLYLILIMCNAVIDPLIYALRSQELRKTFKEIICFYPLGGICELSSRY
mMC4R-NanoLuc and mMC4R-HaloTag homodimer, sequence (P56450 whole entry): as above
mMC5R, sequence (P41149 whole entry, looked up): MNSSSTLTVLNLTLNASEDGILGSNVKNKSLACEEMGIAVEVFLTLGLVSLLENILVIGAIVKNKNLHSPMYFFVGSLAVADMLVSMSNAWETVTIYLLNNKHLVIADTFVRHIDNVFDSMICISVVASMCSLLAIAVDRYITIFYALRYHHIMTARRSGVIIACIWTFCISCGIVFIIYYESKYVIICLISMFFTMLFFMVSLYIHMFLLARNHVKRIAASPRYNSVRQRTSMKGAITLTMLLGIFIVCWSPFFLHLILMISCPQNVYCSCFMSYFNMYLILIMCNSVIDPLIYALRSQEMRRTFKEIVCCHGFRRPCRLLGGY

Row | EC50 (hMC4R [1]) [nM] | fold increase in β-arrestin recruitment compared to CJL-1-14 (hMC4R [2]) [fold] | Compound | β-arrestin response compared to maximal efficacy of NDP-MSH (hMC4R [2]) [%] | change in BRET signal (in words) [5] | also measured
1 | 1.9 ± 0.2 | – | CC(=O)N[C@@H](Cc1c[nH]cn1)C(=O)N[C@H](Cc1ccc2ccccc2c1)C(=O)N[C@@H](CCCNC(=N)N)C(=O)N[C@@H](Cc1c[nH]c2ccccc12)C(=O)N1CCC[C@H]1C(=O)NCC(=O)N1CCC[C@H]1C(=O)NCC(=O)N1CCC[C@H]1C(=O)NCC(=O)N1CCC[C@H]1C(=O)NCC(=O)N1CCC[C@H]1C(=O)NCC(=O)N1CCC[C@H]1C(=O)NCC(=O)N[C@@H](Cc1c[nH]cn1)C(=O)N[C@H](Cc1ccccc1)C(=O)N[C@@H](CCCNC(=N)N)C(=O)N[C@@H](Cc1c[nH]c2ccccc12)C(N)=O [CJL-1-63, Ac-His-DNal(2′)-Arg-Trp-(Pro-Gly)6-His-DPhe-Arg-Trp-NH2] (Ac-H[d2Nal]RWPGPGPGPGPGPGH[dF]RW-NH2) | 55 | – | cAMP agonist potency (in words) (hMC4R [3]; HEK293 cells stably expressing hMC4R): single digit nanomolar agonists
2 | 2 ± 0.3 | < 3 | N=C(N)NCCC[C@H](NC(=O)[C@@H](Cc1ccccc1)NC(=O)[C@H](Cc1c[nH]cn1)NC(=O)COCC(=O)NCCCOCCOCCOCCCN)C(=O)N[C@@H](Cc1c[nH]c2ccccc12)C(N)=O [CJL-1-116] | – | – | EC50 (hMC4R [4]): 140 ± 70 nM
3 | – | – | CC(=O)N[C@@H](Cc1c[nH]cn1)C(=O)N[C@H](Cc1ccc2ccccc2c1)C(=O)N[C@@H](CCCNC(=N)N)C(=O)N[C@@H](Cc1c[nH]c2ccccc12)C(N)=O [CJL-1-80, Ac-His-DNal(2′)-Arg-Trp-NH2] | 30 | no significant changes in BRET signal | –
4 | – | – | CC(=O)N[C@@H](Cc1c[nH]cn1)C(=O)N[C@H](Cc1ccccc1)C(=O)N[C@@H](CCCNC(=N)N)C(=O)N[C@@H](Cc1c[nH]c2ccccc12)C(N)=O [CJL-1-14, Ac-His-DPhe-Arg-Trp-NH2] | – | – | EC50 (mMC5R): 9.8 ± 2.7 nM
5 | – | – | CC(=O)N[C@@H](Cc1c[nH]cn1)C(=O)N[C@H](Cc1ccc2ccccc2c1)C(=O)N[C@@H](CCCNC(=N)N)C(=O)N[C@@H](Cc1c[nH]c2ccccc12)C(=O)NCCCOCCOCCOCCCNC(=O)COCC(=O)N[C@@H](Cc1c[nH]cn1)C(=O)N[C@H](Cc1ccc2ccccc2c1)C(=O)N[C@@H](CCCNC(=N)N)C(=O)N[C@@H](Cc1c[nH]c2ccccc12)C(N)=O [CJL-1-140] | – | no significant changes in BRET signal | β-arrestin recruitment efficacy (in words) (hMC4R [2]; relative to NDP-MSH control, up to 10 μM): equal or lower β-arrestin recruitment; cAMP accumulation of that seen with NDP-MSH (hMC4R [3]; at 10 μM): 70%
6 | – | 5 | CC(=O)N[C@@H](Cc1c[nH]cn1)C(=O)N[C@H](Cc1ccccc1)C(=O)N[C@@H](CCCNC(=N)N)C(=O)N[C@@H](Cc1c[nH]c2ccccc12)C(=O)NCCCOCCOCCOCCCNC(=O)COCC(N)=O [CJL-5-35-4, reference compound] | – | – | fold increase in cAMP potency compared to CJL-1-14 (hMC4R [3]; vs monovalent tetrapeptide CJL-1-14): 3 fold
